# US20250340543A1, “GPR84 ANTAGONISTS AND USES THEREOF” (Liminal BioSciences Limited, priority 2021, published 2025)
# What was measured:
# GPR84 [1] = biological target: T1, GPR84 (Homo sapiens (Human), UniProt Q9NQS5); test: Gai biosensor BRET assay (GPR84-mediated activation of Gai, antagonist mode against agonist ZQ-16); format: cell-based; conditions: for inhibition at 10 µM: compound tested at 10 μM (concentration code D); for IC50: HEK293 cells, 200 nmol/L GPR84 agonist ZQ-16, read-out: hGPR84 IC50; for inhibition at 25 µM: compound tested at 25 μM (concentration code G); for inhibition at 2 µM: compound tested at 2 μM (concentration code A)
# Summary of the method: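 Transiently transfected HEK293 cells expressing GPR84, Gαi2-Rluc8, GFP10-Gγ2 and Gβ1, in Tyrode's buffer pH 7.5. Compounds pre-incubated 5 min at 37° C, then 200 nmol/L ZQ-16 for 5 min at room temperature; BRET² with coelenterazine 400A, ligand-promoted net BRET after background and vehicle subtraction.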
# Target sequence in this assay (Q9NQS5 whole entry): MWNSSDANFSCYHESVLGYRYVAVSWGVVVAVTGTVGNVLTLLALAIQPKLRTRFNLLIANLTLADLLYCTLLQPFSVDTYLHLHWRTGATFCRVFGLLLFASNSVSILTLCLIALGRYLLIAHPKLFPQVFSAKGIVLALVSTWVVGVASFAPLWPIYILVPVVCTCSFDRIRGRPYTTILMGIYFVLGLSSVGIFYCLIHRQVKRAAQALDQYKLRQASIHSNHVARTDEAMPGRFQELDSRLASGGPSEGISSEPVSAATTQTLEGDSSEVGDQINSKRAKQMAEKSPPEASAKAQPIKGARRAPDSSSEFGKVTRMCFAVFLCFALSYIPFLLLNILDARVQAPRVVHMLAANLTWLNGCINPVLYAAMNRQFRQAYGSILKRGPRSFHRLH
# neutrophils = test: Neutrophil migration assay (embelin as chemotactic agent, transwell, ATPlite readout); format: cell-based; conditions: for IC50: Neutrophil, human neutrophils, embelin as chemotactic agent, read-out: Human Neutrophil migration inhibition IC50; for Human Neutrophil migration inhibition - fold potency to Control Compound: IC50 normalized to GPR84 antagonist Control Compound
# Description: Neutrophil migration assay. After isolation, neutrophils were resuspended in chemotaxis buffer (DMEM supplemented with 10 mM HEPES) at a concentration of 8.9×10^6 cells/ml. In a 96-well plate, 20 μl of compound solution in chemotaxis buffer is added to 180 μl of cell suspension. After incubation at 37° C. for 30 minutes, 75 μL of cell suspension is transferred in the upper chamber of a 5 μm pore size Corning HTS transwell. 235 μL of chemotaxis buffer containing the chemotactic agent (embelin) is added to the lower chamber of the transwell. After a 60-minute incubation time at 37° C. in 5% CO2, the upper chamber of the transwell is removed and the plate is centrifuged at 1500 rpm for 6 minutes. Supernatant is removed and cells resuspended in 100 ul of PBS. ATP content was assessed using ATPlite Luminescence Assay System® according to manufacturer instructions (Perkin Elmer, Buckinghamshire, UK). Briefly, 50 μL of ATPlite buffer and 50 μL of lysis solution is added to the lower chamber of the Transwells. After incubation at room temperature, in the dark with constant agitation for 5 minutes, 150 μL of cell lysate is transferred in a 96 wells white plate and incubated for 10 minutes in the dark. Luminescence is read on a TECAN plate reader, Infinite M1000 (Tecan, Morrisville, NC).
# The compound numbers correspond to the compound numbers in Table 1. […] Normalization of the results takes the donor's variation into account.
# [2] = system: mouse dextran sodium sulfate-induced chronic inflammatory bowel disease model; conditions: once-daily doses of 3 and 10 mg/kg, mouse DSS-induced chronic IBD model; cited from earlier work
# GPR84 [3] = biological target: T1, GPR84; conditions: literature (Wang et al. 2006); read-out: potency of GPR84 activation; cited from earlier work
# Target sequence in this assay (Q9NQS5 whole entry, species assumed): as the sequence (Q9NQS5 whole entry) above
compound,measurement,setting,value
Cc1cc(OCC2CCCOC2)cc(=O)n1[C@H](C)c1ccc(C#CC2CC2)cc1 (some centres unmarked) [Compound I-222],inhibition at 10 µM,GPR84 [1],> 75%
same,IC50,neutrophils,1 to 3 µM
O=c1nc(OC[C@@H]2COCCO2)cc2n1CCc1cc(C#CC3CC3)ccc1-2 [GLPG1205],disease activity index score,[2],reduced
same,neutrophil infiltration,[2],reduced
Cc1cc(OCC2COCCO2)cc(=O)n1Cc1cccc(C#CC2CC2)c1 (centres unmarked) [Compound I-2],IC50,GPR84 [1],< 5 µM
same,inhibition at 25 µM,GPR84 [1],> 75%
same,Human Neutrophil migration inhibition - fold potency to Control Compound,neutrophils,C (IC50≤0.5-fold relative to Control Compound)
same,IC50,neutrophils,> 3 µM
Cc1cc(OC[C@H]2COc3ccccc3O2)cc(=O)n1Cc1cccc(C#CC2CC2)c1 [Compound I-30],inhibition at 2 µM,GPR84 [1],25 to 50%
same,Human Neutrophil migration inhibition - fold potency to Control Compound,neutrophils,C (IC50≤0.5-fold relative to Control Compound)
same,IC50,neutrophils,1 to 3 µM
Cc1cc(OCc2ncccn2)cc(=O)n1[C@H](C)c1ccc(C#CC2CC2)cc1 [Compound I-223],IC50,GPR84 [1],< 5 µM
same,inhibition at 10 µM,GPR84 [1],> 75%
same,Human Neutrophil migration inhibition - fold potency to Control Compound,neutrophils,B (IC50 of >0.5-≤1.0-fold relative to Control Compound)
same,IC50,neutrophils,≤ 0.3 µM
CCCCCCCCCCCC(=O)O [lauric acid],EC50,GPR84 [3],11 µM
Cc1cc(OCc2ncccn2)cc(=O)n1C(C)C1CCN(c2ccc(C3CC3)cc2)CC1 (centres unmarked) [Compound I-368],inhibition at 10 µM,GPR84 [1],< 25%
Cc1cc(OCc2ncco2)cc(=O)n1[C@H](C)c1ccc(C#CC2CC2)cc1 [Compound I-296],IC50,GPR84 [1],< 5 µM
same,inhibition at 10 µM,GPR84 [1],> 75%
Cc1nc(OCc2ccc(C#CC3CC3)cc2C)cc(OCC2COCCO2)n1 (centres unmarked) [Compound I-23],inhibition at 10 µM,GPR84 [1],< 25%
COc1cc(OCC2COCCO2)cc(-c2ccc(C#CC3CC3)cc2C)n1 (centres unmarked) [Compound I-90],inhibition at 25 µM,GPR84 [1],< 25%
Cc1cc(OCc2ncccn2)cc(=O)n1C(C)c1ccc(C#CC2CC2)nc1 (centres unmarked) [Compound I-287],inhibition at 10 µM,GPR84 [1],25 to 50%
FC(F)(F)COc1ccc(-c2cc(OCC3COCCO3)cc(C(F)(F)F)c2)cc1 (centres unmarked) [Compound I-165],inhibition at 25 µM,GPR84 [1],< 25%
Cc1cc(OCc2ccccn2)ccc1-c1cc(OCC2COCCO2)n(C)c(=O)c1 (centres unmarked) [Compound I-121],inhibition at 10 µM,GPR84 [1],< 25%
Cc1cc(C#CC2CC2)cnc1C(C)n1ccc(OC[C@@H]2COCCO2)cc1=O (some centres unmarked) [Compound I-285],inhibition at 10 µM,GPR84 [1],< 25%
O=C(CC1CCOc2ccccc21)N1Cc2ccc(C#CC3CC3)cc2C1 (centres unmarked) [Compound I-217],inhibition at 10 µM,GPR84 [1],< 25%
FC(F)(F)COc1ccc(-c2cc(OCC3COCCO3)cc(C3CO3)c2)cc1 (centres unmarked) [Compound I-164],inhibition at 15 µM,GPR84 [1]; compound tested at 15 μM (concentration code F),< 25%
Cc1cc(OCC2COCCO2)cc(=O)n1C(C)c1ccc(C#CC2CC2)cc1 (centres unmarked) [Compound I-1],IC50,GPR84 [1],< 5 µM
same,inhibition at 25 µM,GPR84 [1],> 75%
Cc1cc(OC[C@H]2COCCO2)cc(=O)n1Cc1ccc(F)c(C#CC2CC2)c1 [Compound I-28],inhibition at 10 µM,GPR84 [1],< 25%
FC(F)(F)COc1ccc(-c2cncc(OCC3COCCO3)c2)cc1 (centres unmarked) [Compound I-53],inhibition at 25 µM,GPR84 [1],25 to 50%
FC(F)(F)COc1ccc(-c2nc(OCC3COCCO3)cc3c2OCCC3)cc1 (centres unmarked) [Compound I-160],inhibition at 25 µM,GPR84 [1],< 25%
Cc1cc(OCC2COCCO2)cc(=O)n1C(C)c1ccc(C#CCNc2ccccc2)cc1 (centres unmarked) [Compound I-117],inhibition at 10 µM,GPR84 [1],< 25%
Cc1cc(OCc2cn(C)nn2)cc(=O)n1[C@H](C)c1ccc(C#CC2CC2)cc1 [Compound I-357],IC50,GPR84 [1],< 5 µM
same,inhibition at 2 µM,GPR84 [1],> 75%
Cc1cc(OCC2COCCO2)cc(=O)n1Cc1cccc(C#CCNc2ccccc2)c1 (centres unmarked) [Compound I-14],inhibition at 10 µM,GPR84 [1],< 25%
Cc1cc(OCc2ccccn2)cc(=O)n1[C@H](C)c1ccc(C#CC2CC2)cc1 [Compound I-290],IC50,GPR84 [1],< 5 µM
same,inhibition at 2 µM,GPR84 [1],> 75%
FC(F)(F)COc1ccc(-c2nc(OCC3COCCO3)cc3c2OCCO3)cc1 (centres unmarked) [Compound I-158],inhibition at 25 µM,GPR84 [1],< 25%
Cc1cc(OCc2ncccn2)cc(=O)n1[C@H](C)c1ccccc1 [Compound I-300],inhibition at 10 µM,GPR84 [1],< 25%
CCC(c1ccc(C#CC2CC2)cc1)n1c(C)cc(OCC2COCCO2)cc1=O (centres unmarked) [Compound I-21],inhibition at 10 µM,GPR84 [1],50 to 75%
